Reference: PubChem BioAssay (NCI)
“And” between values parts separate entries of the source, which are not always exact repeats. Equal entries are not always repeated.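 Where inhibition never reached the appropriate level, the endpoint shown equals the highest concentration tested. Otherwise, values were interpolated linearly from a five-concentration, 48-hour dose response in 96-well plates. Here, GI50 denotes the concentration required for 50% inhibition of growth. TGI marks complete inhibition of growth.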

Assays:
Experiment in all cases: NCI tumour cell line growth inhibition, 48 h
A549 NSCLC = tested on: A549 NSCLC
MCF7 breast = tested on: MCF7 breast
NCI-H522 lung = tested on: NCI-H522 lung
NCI/ADR-RES ovarian = tested on: NCI/ADR-RES ovarian
NCI-H23 lung = tested on: NCI-H23 lung
SK-MEL-5 melanoma = tested on: SK-MEL-5 melanoma
NCI-H226 lung = tested on: NCI-H226 lung
SF-268 CNS = tested on: SF-268 CNS
HT29 colon = tested on: HT29 colon
786-0 renal = tested on: 786-0 renal

CC(C)(C)NC(=O)[C@H]1CC[C@H]2[C@@H]3CC[C@H]4NC(=O)C=C[C@]4(C)[C@H]3CC[C@]12C
GI50 (A549 NSCLC): > 100 µM
TGI (A549 NSCLC): > 100 µM
GI50 (MCF7 breast): > 100 µM
TGI (MCF7 breast): > 100 µM
GI50 (NCI-H522 lung): 23.2 µM and > 100 µM
TGI (NCI-H522 lung): > 100 µM
GI50 (NCI/ADR-RES ovarian): > 100 µM
TGI (NCI/ADR-RES ovarian): > 100 µM
GI50 (NCI-H23 lung): > 100 µM
TGI (NCI-H23 lung): > 100 µM
GI50 (SK-MEL-5 melanoma): 43.1 µM and > 100 µM
TGI (SK-MEL-5 melanoma): > 100 µM
GI50 (NCI-H226 lung): > 100 µM
TGI (NCI-H226 lung): > 100 µM
GI50 (SF-268 CNS): > 100 µM
TGI (SF-268 CNS): > 100 µM
GI50 (HT29 colon): 44.9 µM and 69.6 µM
TGI (HT29 colon): > 100 µM
GI50 (786-0 renal): > 100 µM
TGI (786-0 renal): > 100 µM

C[C@@H](NC(=O)c1ncnc(N)c1Cl)c1ncc(C(=O)Nc2cc(C(F)(F)F)c(Cl)cn2)s1
GI50 (A549 NSCLC): 18 µM
TGI (A549 NSCLC): 64.4 µM
GI50 (MCF7 breast): 19.9 µM
TGI (MCF7 breast): 66.1 µM
GI50 (NCI-H522 lung): 13.5 µM
TGI (NCI-H522 lung): 34.3 µM
GI50 (NCI/ADR-RES ovarian): 24.5 µM
TGI (NCI/ADR-RES ovarian): 82.5 µM
GI50 (NCI-H23 lung): 10.8 µM
TGI (NCI-H23 lung): 57.9 µM
GI50 (SK-MEL-5 melanoma): 8.91 µM
TGI (SK-MEL-5 melanoma): 24.1 µM
GI50 (NCI-H226 lung): 15.4 µM
TGI (NCI-H226 lung): 74.3 µM
GI50 (SF-268 CNS): 26.8 µM
TGI (SF-268 CNS): > 71.6 µM
GI50 (HT29 colon): 1.07 µM
TGI (HT29 colon): 46.2 µM
GI50 (786-0 renal): 36.3 µM
TGI (786-0 renal): > 100 µM

C[C@H](CS)C(=O)N1c2ccccc2C[C@H]1C(=O)O
TGI (A549 NSCLC): > 100 µM
TGI (MCF7 breast): > 100 µM
TGI (NCI-H522 lung): > 100 µM
TGI (NCI/ADR-RES ovarian): > 100 µM
TGI (NCI-H23 lung): > 100 µM
TGI (SK-MEL-5 melanoma): > 100 µM
TGI (NCI-H226 lung): > 100 µM
TGI (SF-268 CNS): > 100 µM
TGI (HT29 colon): > 100 µM
TGI (786-0 renal): > 100 µM

Cc1ccc(Cl)cc1NC(=O)c1cc2ccccc2cc1O
GI50 (A549 NSCLC): 0.418 µM
TGI (A549 NSCLC): > 100 µM
GI50 (MCF7 breast): 1.35 µM
TGI (MCF7 breast): 4.88 µM
GI50 (NCI-H522 lung): 0.231 µM
TGI (NCI-H522 lung): 0.719 µM
GI50 (NCI/ADR-RES ovarian): 0.266 µM
TGI (NCI/ADR-RES ovarian): 1.27 µM
GI50 (NCI-H23 lung): 0.234 µM
TGI (NCI-H23 lung): 0.707 µM
GI50 (SK-MEL-5 melanoma): 0.277 µM
TGI (SK-MEL-5 melanoma): 0.824 µM
GI50 (NCI-H226 lung): 0.417 µM
TGI (NCI-H226 lung): 3.1 µM
GI50 (SF-268 CNS): 0.426 µM
TGI (SF-268 CNS): > 32.6 µM
GI50 (HT29 colon): 3.37 µM
TGI (HT29 colon): 14.2 µM
GI50 (786-0 renal): 0.507 µM
TGI (786-0 renal): 1.94 µM

C/C(=N\n1c(O)c(C#N)cc(C#N)c1=O)c1ccncc1
GI50 (A549 NSCLC): > 100 µM
TGI (A549 NSCLC): > 100 µM
GI50 (MCF7 breast): > 100 µM
TGI (MCF7 breast): > 100 µM
GI50 (NCI-H522 lung): > 100 µM
TGI (NCI-H522 lung): > 100 µM
GI50 (NCI/ADR-RES ovarian): > 100 µM
TGI (NCI/ADR-RES ovarian): > 100 µM
GI50 (NCI-H23 lung): > 100 µM
TGI (NCI-H23 lung): > 100 µM
GI50 (SK-MEL-5 melanoma): > 100 µM
TGI (SK-MEL-5 melanoma): > 100 µM
GI50 (NCI-H226 lung): > 100 µM
TGI (NCI-H226 lung): > 100 µM
GI50 (SF-268 CNS): > 100 µM
TGI (SF-268 CNS): > 100 µM
GI50 (HT29 colon): > 100 µM
TGI (HT29 colon): > 100 µM
GI50 (786-0 renal): > 100 µM
TGI (786-0 renal): > 100 µM

O=C(CCl)Nc1cc(Cl)c(Cl)cc1Cl
TGI (A549 NSCLC): 4.56 µM
TGI (MCF7 breast): 3.6 µM
TGI (NCI-H522 lung): 2.02 µM
TGI (NCI/ADR-RES ovarian): 5.31 µM
TGI (NCI-H23 lung): 3.28 µM
TGI (SK-MEL-5 melanoma): 3.17 µM
TGI (NCI-H226 lung): 2.48 µM
TGI (SF-268 CNS): 4.62 µM
TGI (HT29 colon): 3.7 µM
TGI (786-0 renal): 2.87 µM

CN(C)C=NC1CCC(C(C)(C)C)CC1 (stereo not given)
TGI (A549 NSCLC): 38.9 µM
TGI (MCF7 breast): > 100 µM
TGI (NCI-H522 lung): 31.8 µM
TGI (NCI/ADR-RES ovarian): 32.8 µM
TGI (NCI-H23 lung): 34.3 µM
TGI (SK-MEL-5 melanoma): 31 µM
TGI (NCI-H226 lung): 41.3 µM
TGI (SF-268 CNS): 96 µM
TGI (HT29 colon): 21.6 µM
TGI (786-0 renal): 33.3 µM

CCN(CC)CCC(CNc1ccnc2cc(Cl)ccc12)c1ccccc1 (stereo not given)
GI50 (A549 NSCLC): 11.6 µM
TGI (A549 NSCLC): 26.3 µM
GI50 (MCF7 breast): 4.75 µM
TGI (MCF7 breast): 18 µM
GI50 (NCI-H522 lung): 2.58 µM
TGI (NCI-H522 lung): 11.7 µM
GI50 (NCI/ADR-RES ovarian): 9.92 µM
TGI (NCI/ADR-RES ovarian): 48.4 µM
GI50 (NCI-H23 lung): 11.5 µM
TGI (NCI-H23 lung): 38.8 µM
GI50 (SK-MEL-5 melanoma): 1.69 µM
TGI (SK-MEL-5 melanoma): 3.07 µM
GI50 (NCI-H226 lung): 11.3 µM
TGI (NCI-H226 lung): 41.1 µM
GI50 (SF-268 CNS): 7.85 µM
TGI (SF-268 CNS): 41 µM
GI50 (HT29 colon): 0.493 µM
TGI (HT29 colon): 10.4 µM
GI50 (786-0 renal): 3.69 µM
TGI (786-0 renal): 13.5 µM

CCOC(=O)c1c(NC(=O)c2ccccc2)sc2c3c(ccc12)OCN(C)C3
GI50 (A549 NSCLC): 1.73 µM
TGI (A549 NSCLC): 3.56 µM
GI50 (MCF7 breast): 1.59 µM
TGI (MCF7 breast): 3.17 µM
GI50 (NCI-H522 lung): 1.66 µM
TGI (NCI-H522 lung): 3.62 µM
GI50 (NCI/ADR-RES ovarian): 1.59 µM
TGI (NCI/ADR-RES ovarian): 3.32 µM
GI50 (NCI-H23 lung): 1.78 µM
TGI (NCI-H23 lung): 3.78 µM
GI50 (SK-MEL-5 melanoma): 1.74 µM
TGI (SK-MEL-5 melanoma): 3.14 µM
GI50 (NCI-H226 lung): 1.9 µM
TGI (NCI-H226 lung): 4.14 µM
GI50 (SF-268 CNS): 1.77 µM
TGI (SF-268 CNS): 3.59 µM
GI50 (HT29 colon): 2 µM
TGI (HT29 colon): 4.25 µM
GI50 (786-0 renal): 1.79 µM
TGI (786-0 renal): 3.4 µM

Nc1nnnc2nc[nH]c12
GI50 (A549 NSCLC): 6.42 µM
TGI (A549 NSCLC): > 100 µM
GI50 (MCF7 breast): 2.58 µM
TGI (MCF7 breast): > 100 µM
GI50 (NCI-H522 lung): 2.02 µM
TGI (NCI-H522 lung): 17 µM
GI50 (NCI/ADR-RES ovarian): 0.742 µM
TGI (NCI/ADR-RES ovarian): > 26 µM
GI50 (NCI-H23 lung): 3.19 µM
TGI (NCI-H23 lung): 40.9 µM
GI50 (SK-MEL-5 melanoma): 2.02 µM
TGI (SK-MEL-5 melanoma): 8.22 µM
GI50 (NCI-H226 lung): 1.05 µM
TGI (NCI-H226 lung): 4.86 µM
GI50 (SF-268 CNS): 3.19 µM
TGI (SF-268 CNS): > 100 µM
GI50 (HT29 colon): 3.79 µM
TGI (HT29 colon): > 100 µM
GI50 (786-0 renal): 0.96 µM
TGI (786-0 renal): > 100 µM
